Results taken from patent publication US11166941B2, “Synergistic nutritional compositions for enhancing ATP efficiency” (CELAGENEX RESEARCH (INDIA) PVT. LTD., priority 2020, dated 2021).

What was measured:
[1] = system: HepG2 (Human Hepatocyte) cell line; test: In vitro cytotoxicity by MTT assay on HepG2 cell line; assay type: cell-based; conditions: 72 hours; for IC50 / inhibition at 62.5 µg/mL / inhibition at 125 µg/mL / inhibition at 250 µg/mL / inhibition at 500 µg/mL / inhibition at 1000 µg/mL: Homo sapiens; for IC50: read-out: CTC 50
Experimental: The in vitro cytotoxicity was performed on HepG2 (Human Hepatocyte) cell line to find a non-toxic concentration of the test substances by MTT assay and the potential of test substances to increase the cellular ATP levels was evaluated by kit method. For test substance ABC, the test substances were combined in the weight ratio of 1:0.05:0.01. A weight of about 10 mg of ABC was dissolved in 100 μl of DMSO and the volume was made up to 1 ml with DMEM-HG (Dulbecco's Modified Eagle Medium High Glucose). For individual test substances A, B and C, about 10 mg of all the test substances were weighed and separately dissolved with 100 μl of DMSO and volume was made up with DMEM-HG supplemented with 2% inactivated FBS to obtain a stock solution of 1 mg/ml concentration. The samples were further sterilized by 0.22 syringe filtration. Serial two-fold dilutions were prepared from the stock for carrying out further studies. Cell line was cultured in DMEM-HG supplemented with 10% inactivated Fetal Bovine Serum (FBS), penicillin (100 IU/ml), streptomycin (100 μg/ml) and amphotericin B (5 μg/ml) in a humidified atmosphere of 5% CO2 at 37° C. until confluent. The cells were dissociated with TPVG solution (0.2% trypsin, 0.02% EDTA, 0.05% glucose in PBS). The stock cultures were grown in 25 cm^2 culture flasks and all experiments were carried out in 96 well microtitre plates (Tarsons India Pvt. Ltd., Kolkata, India). The monolayer cell culture was trypsinized and the cell count was adjusted to 1.0×10^5 cells/ml using DMEM-HG containing 10% FBS. To each well of the 96 well microtitre plate, 0.1 ml of the diluted cell suspension was added. After 24 hours, when a partial monolayer was formed, the supernatant was flicked off, the monolayer was washed once with medium and 100 μl of different concentrations of test substances were added. The plate was then incubated at 37° C. for 72 hours in a 5% CO2 atmosphere, and microscopic examination was carried out with observations being noted at a 24-hour interval. After 72 hours of incubation, the drug solutions in the wells were discarded and 50 μl of MTT in PBS was added to each well. The plate was gently shaken and incubated for 3 hours at 37° C. in a 5% CO2 atmosphere. The supernatant was removed and 100 μl of 2-propanol was added and the plate was gently shaken to solubilize the formed formazan. The absorbance was measured using a microplate reader at a wavelength of 540 nm. The percentage growth inhibition was calculated using the standard formula. The concentration of test substances needed to inhibit the growth of the cell by 50% i.e., CTC50 values were generated from the dose-response curves.

HepG2 cells = test: Estimation of cellular respiration by measuring cellular ATP levels (kit method) in HepG2 cells; assay type: cell-based, Human; conditions: for % ATP Enhancement / ATP enhancement fold: over control; for Cellular ATP Conc.: HepG2, 2 hours treatment
Experimental: The test substances were evaluated for their in vitro effect on cellular energy by measuring cellular ATP levels in human Hepatocytes (HepG2) cell line. In the given experimental conditions, treatment with the test substances improved cellular ATP levels in vitro [J Immunol Methods; 1986; 89: 271-277]; [Proc Nal Acad Sci USA; 2009; 106: 15651-15656].
For test substance ABC, the test substances were combined in the weight ratio of 1:0.05:0.01. A weight of about 10 mg of ABC was dissolved in 100 μl of DMSO and the volume was made up to 1 ml with DMEM-HG (Dulbecco's Modified Eagle Medium High Glucose). For individual test substances A, B and C, about 10 mg of all the test substances were weighed and separately dissolved with 100 μl of DMSO and volume was made up with DMEM-HG supplemented with 2% inactivated FBS to obtain a stock solution of 1 mg/ml concentration. The samples were further sterilized by 0.22 syringe filtration. Serial two-fold dilutions were prepared from the stock for carrying out further studies.
Cell line was cultured in DMEM-HG supplemented with 10% inactivated Fetal Bovine Serum (FBS), penicillin (100 IU/ml), streptomycin (100 μg/ml) and amphotericin B (5 μg/ml) in a humidified atmosphere of 5% CO2 at 37° C. until confluent. The cells were dissociated with TPVG solution (0.2% trypsin, 0.02% EDTA, 0.05% glucose in PBS). The stock cultures were grown in 25 cm^2 culture flasks and all experiments were carried out in 96 well microtitre plates (Tarsons India Pvt. Ltd., Kolkata, India).
HepG2 cells were trypsinized from stock culture flasks and the cell count was adjusted to 1.0×10^5 cells/ml to obtain a cell suspension that was seeded into a 6-well plate. After 24 hours, cell cultures achieved 70-80% confluency and were treated with different nontoxic concentrations of test substances. After 2 hours of treatment, the plate was washed with phosphate buffer saline. The cellular ATP level determination was performed according to the instructions given in the kit manual (SIGMA, #MAK190). At the end of the experiment, the optical density was read at 570 nm using microplate reader. From the absorbance values, the cellular ATP levels were estimated using kit protocol and the concentration of cellular ATP in treated groups were determined in comparison to the control groups.

[2] = cell studies, background statement; cited from earlier work
[3] = concentration inhibiting cell growth by 50%

Compound | IC50 [1, 3] | inhibition at 62.5 µg/mL ([1]; test conc. 62.5 μg/ml) | inhibition at 125 µg/mL ([1]; test conc. 125 μg/ml) | inhibition at 250 µg/mL ([1]; test conc. 250 μg/ml) | inhibition at 500 µg/mL ([1]; test conc. 500 μg/ml) | inhibition at 1000 µg/mL ([1]; test conc. 1000 μg/ml) | enhancement of cellular ATP levels over the control (in words) (HepG2 cells; HepG2, 500 μg/ml) | % ATP Enhancement (HepG2 cells; HepG2, 500 μg/ml) | ATP enhancement fold (HepG2 cells; HepG2, 500 μg/ml) | other results
O=C(O)CC(=O)C(=O)O [Stabilized Oxaloacetate (A), Oxaloacetic acid] | > 1000 µg/mL | 10.7 ± 0.84% | 16.6 ± 0.82% | 23.8 ± 2.25% | 34.4 ± 2.2% | 40.4 ± 1.22% | No significant enhancement | 10% | 1.09 fold | Cellular ATP Conc. (HepG2 cells; 500 μg/ml): 5.42 ± 0.25 mM; Cellular ATP Conc. (HepG2 cells; 500 μg/ml, listed as Oxaloacetic acid (A)): 5.42 ± 0.25 mM
manganese (II) sulphate monohydrate [Manganese-Sulphate (C)] | – | – | – | – | – | – | No significant enhancement | 00% | 1.00 fold | CTC 50 [1, 3]: 558.91 ± 6.22 µg/mL; % Inhibition ([1]; test conc. 62.5 μg/ml): 30.00 ± 0.54%; % Inhibition ([1]; test conc. 125 μg/ml): 35.54 ± 0.47%; % Inhibition ([1]; test conc. 250 μg/ml): 42.44 ± 0.81%; % Inhibition ([1]; test conc. 500 μg/ml): 48.75 ± 0.18%; % Inhibition ([1]; test conc. 1000 μg/ml): 59.35 ± 0.63%; Cellular ATP Conc. (HepG2 cells; 500 μg/ml, listed as C, sulphate monohydrate): 4.92 ± 0.13 mM; Cellular ATP Conc. (HepG2 cells; 500 μg/ml, listed as Manganese sulphate (C), sulphate monohydrate): 4.92 ± 0.13 mM
OO [Composition H2O2, H2O2, reference compound] | – | – | – | – | – | – | – | – | – | ATP enhancement fold (HepG2 cells; HepG2, 20 μM): 0.67 fold; Cellular ATP Conc. (HepG2 cells; 20 μM): 1.97 ± 0.45 mM
O=C(O)CC(=O)C(=O)O [oxaloacetate] | – | – | – | – | – | – | – | – | – | increase muscular endurance [2]: up to 10%
O=C(O)CCCC[C@@H]1SC[C@@H]2NC(=O)N[C@@H]21 [D-Biotin (B), Biotin] | > 1000 µg/mL | 6.13 ± 3.48% | 25.1 ± 0.81% | 31.2 ± 1.17% | 42.9 ± 1.29% | 47.6 ± 1.45% | No significant enhancement | 22% | 1.11 fold | Cellular ATP Conc. (HepG2 cells; 500 μg/ml, listed as B): 6.05 ± 0.33 mM; Cellular ATP Conc. (HepG2 cells; 500 μg/ml, listed as Biotin (B)): 6.05 ± 0.33 mM
Oc1ccc(C=Cc2cc(O)cc(O)c2)cc1 [Resveratrol, reference compound] | – | – | – | – | – | – | – | – | – | % ATP Enhancement (HepG2 cells; HepG2, 100 μg/ml): 13%; ATP enhancement fold (HepG2 cells; HepG2, 100 μg/ml): 1.09 fold; Cellular ATP Conc. (HepG2 cells; 100 μg/ml): 5.56 ± 0.37 mM
